In paper PMC11200585, “Prospects for Prostate Cancer Chemotherapy: Cytotoxic Evaluation and Mechanistic Insights of Quinolinequinones with ADME/PK Profile” (Biomedicines, 2024):

Key:
Format in all cases: cell-based, human
[1] = test system: COLO 205; test: NCI-60 five-dose assay (colon cancer); conditions: 48 h, SRB
[2] = test system: NCI-H226; test: NCI-60 five-dose assay (non-small cell lung cancer); conditions: 48 h, SRB
[3] = test system: EKVX; test: as above; conditions: 48 h, SRB
[4] = test system: MCF7; test: NCI-60 five-dose assay (breast cancer); conditions: 48 h, SRB
[5] = test system: NCI-H322M; test: NCI-60 five-dose assay (non-small cell lung cancer); conditions: 48 h, SRB
[6] = test system: A549/ATCC; test: as above; conditions: 48 h, SRB
[7] = test system: K-562; test: NCI-60 five-dose assay (leukemia); conditions: SRB
[8] = test system: M14; test: NCI-60 five-dose assay (melanoma); conditions: 48 h, SRB
[9] = test system: MDA-MB-435; test: NCI-60 five-dose assay (melanoma); conditions: 48 h, SRB
[10] = test system: NCI-H23; test: NCI-60 five-dose assay (non-small cell lung cancer); conditions: 48 h, SRB
[11] = test system: SF-295; test: NCI-60 one-dose screen (CNS cancer); conditions: 10 µM single dose, 48 h
Procedure: (§1) The obtained quinolinequinones were submitted to NCI, Bethesda, USA, and, as per standard protocol of NCI, all compounds were evaluated for their antiproliferative activity at single-dose assay (10 µM concentration in DMSO) on a panel of 60 cancer cell lines derived from leukemia, non-small-cell lung, colon, CNS, melanoma, ovarian, renal, prostate, and breast, as per protocol. Tested compounds were added to the microtiter culture plates followed by incubation for 48 h at 37 °C. Sulforhodamine B (SRB), a protein-binding dye, is used for endpoint determination. The percent of the growth of the treated cells was determined in comparison to the untreated control cells and the results of each tested compound were reported. Data from one-dose experiments pertain to the percentage growth at 10 μM [16, 17, 18].

[12] = test system: SF-268; test: NCI-60 one-dose screen (CNS cancer); conditions: 10 µM single dose, 48 h
Procedure: as §1

[13] = test system: SNB-75; test: NCI-60 one-dose screen (CNS cancer); conditions: 10 µM single dose, 48 h
Procedure: as §1

[14] = test system: U251; test: NCI-60 one-dose screen (CNS cancer); conditions: 10 µM single dose, 48 h
Procedure: as §1

[15] = test system: SNB-19; test: NCI-60 one-dose screen (CNS cancer); conditions: 10 µM single dose, 48 h
Procedure: as §1

[16] = test system: SF-539; test: NCI-60 one-dose screen (CNS cancer); conditions: 10 µM single dose, 48 h
Procedure: as §1

[17] = test system: CCRF-CEM; test: NCI-60 five-dose assay (leukemia); conditions: Homo sapiens, 48 h, SRB
[18] = test system: SN12C; test: NCI-60 five-dose assay (renal cancer); conditions: 48 h, SRB
[19] = test system: UACC-62; test: NCI-60 five-dose assay (melanoma); conditions: 48 h, SRB
[20] = test system: NCI-H522; test: NCI-60 one-dose screen (non-small cell lung cancer); conditions: 10 µM single dose, 48 h
Procedure: as §1

[21] = test system: HOP-62; test: as above; conditions: 10 µM single dose
Procedure: as §1

[22] = test system: NCI-H23; test: as above; conditions: 10 µM single dose, 48 h
Procedure: as §1

[23] = test system: NCI-H322M; test: as above; conditions: 10 µM single dose, 48 h
Procedure: as §1

[24] = test system: NCI-H226; test: as above; conditions: 10 µM single dose, 48 h
Procedure: as §1

[25] = test system: A549/ATCC; test: as above; conditions: 10 µM single dose, 48 h
Procedure: as §1

[26] = test system: NCI-H460; test: as above; conditions: 10 µM single dose
Procedure: as §1

[27] = test system: HOP-92; test: as above; conditions: 10 µM single dose, 48 h
Procedure: as §1

[28] = test system: EKVX; test: as above; conditions: 10 µM single dose, 48 h
Procedure: as §1

[29] = test system: HCT-116; test: NCI-60 one-dose screen (colon cancer); conditions: 10 µM single dose, 48 h
[30] = test system: T-47D; test: NCI-60 five-dose assay (breast cancer); conditions: 48 h, SRB
[31] = test system: CCRF-CEM; test: NCI-60 one-dose screen (leukemia); conditions: 10 µM single dose
Procedure: as §1

[32] = test system: RPMI-8226; test: NCI-60 one-dose screen (leukemia); conditions: 10 µM single dose, 48 h
Procedure: as §1

[33] = test system: K-562; test: NCI-60 one-dose screen (leukemia)
Procedure: as §1

[34] = test system: MOLT-4; test: NCI-60 one-dose screen (leukemia); conditions: 10 µM single dose
Procedure: as §1

[35] = test system: HL-60(TB); test: NCI-60 one-dose screen (leukemia); conditions: 10 µM single dose, 48 h
Procedure: as §1

[36] = test system: SR; test: NCI-60 one-dose screen (leukemia); conditions: 10 µM single dose, 48 h
Procedure: as §1

[37] = test system: SK-MEL-28; test: NCI-60 five-dose assay (melanoma); conditions: 48 h, SRB
[38] = test system: HL-60(TB); test: NCI-60 five-dose assay (leukemia); conditions: 48 h, SRB
[39] = test system: DU-145; test: NCI-60 five-dose assay (prostate cancer); conditions: 48 h, SRB
[40] = Homo sapiens, read-out: LC50 (the source's name)

In the case of `COc1cc(NC2=C(Cl)C(=O)c3nc(C)ccc3C2=O)cc(OC)c1` [AQQ5], the TGI [1] is reported as 3.08 µM, the GI50 ([1]; Homo sapiens) is reported as 1.68 µM and the CC50 [1, 40] is reported as 5.63 µM. It also gave a TGI [2] of 8.35 µM, a GI50 ([2]; Homo sapiens) of 2.82 µM and an LC50 ([2]; Homo sapiens) of 46.1 µM. For the same molecule, the TGI [3] was 3.12 µM, the GI50 ([3]; Homo sapiens) was 1.6 µM and the CC50 [3, 40] was 6.08 µM. The TGI [4] was 5.33 µM, the GI50 ([4]; Homo sapiens) was 1.82 µM and the LC50 ([4]; Homo sapiens) was > 100 µM. It also gave a TGI [5] of 12.8 µM, a GI50 ([5]; Homo sapiens) of 3.42 µM and a CC50 [5, 40] of 35.8 µM. For the same molecule, the TGI [6] was 8.97 µM, the GI50 ([6]; Homo sapiens) was 2.83 µM and the CC50 [6, 40] was 38.8 µM. The TGI ([7]; 48 h) was >100 µM, the GI50 ([7]; Homo sapiens, K562, 48 h) was 0.381 µM and the LC50 ([7]; Homo sapiens, K562, 48 h) was > 100 µM. It also gave a TGI [8] of 3.09 µM, a GI50 ([8]; Homo sapiens) of 1.69 µM and an LC50 ([8]; Homo sapiens) of 5.66 µM. It also gave a TGI [9] of 3.57 µM, a GI50 ([9]; Homo sapiens) of 1.72 µM and a CC50 [9, 40] of 7.39 µM. It also gave a TGI [10] of 3.15 µM, a GI50 ([10]; Homo sapiens) of 1.53 µM and a CC50 [10, 40] of 6.49 µM. The “GP (growth percentage)” value [11] was 51.57%, the “GP (growth percentage)” value [12] was 37.00% and the “GP (growth percentage)” value [13] was −4.09%. The “GP (growth percentage)” value [14] was 36.76%, the “GP (growth percentage)” value [15] was 30.42% and the “GP (growth percentage)” value [16] was −30.92%. For the same molecule, the GI50 [17] was 2.23 µM, the LC50 (concentration killing 50% of cells) [17] was > 100 µM and the TGI [18] was 3.25 µM. The GI50 ([18]; Homo sapiens) was 1.71 µM, the LC50 (concentration killing 50% of starting cells) ([18]; Homo sapiens) was 6.19 µM and the TGI [19] was 3.42 µM. The GI50 ([19]; Homo sapiens) was 1.77 µM, the LC50 (concentration killing 50% of cells) ([19]; Homo sapiens) was 6.6 µM and the “GP (growth percentage)” value [20] was −80.61%. The “GP (growth percentage)” value ([21]; 48 h) was 0.85%, the inhibition at 10 µM ([21]; Homo sapiens) was 99.2% and the “GP (growth percentage)” value [22] was −55.61%. For the same molecule, the “GP (growth percentage)” value [23] was 89.75%, the “GP (growth percentage)” value [24] was 68.59% and the “GP (growth percentage)” value [25] was 42.41%. For the same molecule, the “GP (growth percentage)” value ([26]; 48 h) was 2.02%, the inhibition at 10 µM ([26]; Homo sapiens) was 98% and the “GP (growth percentage)” value [27] was −12.23%. For the same molecule, the “GP (growth percentage)” value [28] was 74.66%, the “GP (growth percentage)” value [29] was −97.84% and the TGI [30] was 3.62 µM. The GI50 ([30]; Homo sapiens, T47D) was 1.5 µM, the CC50 ([30]; Homo sapiens, T47D, read-out: LC50 (the source's name)) was 8.74 µM and the “GP (growth percentage)” value ([31]; 48 h) was 2.72%. For the same molecule, the inhibition at 10 µM ([31]; Homo sapiens) was 97.3%, the “GP (growth percentage)” value [32] was −39.66% and the “GP (growth percentage)” value ([33]; 10 µM single dose, 48 h) was 4.73%. For the same molecule, the inhibition at 10 µM ([33]; Homo sapiens, K562, 10 µM single dose) was 95.3%, the “GP (growth percentage)” value ([34]; 48 h) was 8.29% and the inhibition at 10 µM ([34]; Homo sapiens) was 91.7%. The “GP (growth percentage)” value [35] was −13.44%, the “GP (growth percentage)” value [36] was −3.19% and the TGI [37] was 3.23 µM. For the same molecule, the GI50 ([37]; Homo sapiens) was 1.79 µM, the LC50 ([37]; Homo sapiens) was 5.85 µM and the TGI [38] was 4.65 µM. The GI50 ([38]; Homo sapiens) was 1.38 µM, the CC50 [38, 40] was > 100 µM and the TGI [39] was 3.55 µM. The GI50 ([39]; Homo sapiens) was 1.84 µM and the CC50 [39, 40] was 6.83 µM.
